pKi: −log10 of the molar value.
molecular target: IMPDH human type II (Homo sapiens, UniProt P12268); experiment: IMPDH activity inhibition assay (spectrophotometric, NADH formation at 340 nm); type: biochemical; settings: not given
Experimental: We have measured the inhibition constants of each compound against IMPDH using an adaptation of the method first reported by […]. Moyed, and […]. Biol. Chem., 226, p. 339 (1957)]. We measured the inhibition constants of the compounds listed in Table III utilizing the following protocol: IMP dehydrogenase activity was assayed following an adaptation of the method first reported by […]. Moyed, H. S. and […]. Biol. Chem. 226, 339]. Enzyme activity was measured spectrophotometrically, by monitoring the increase in absorbance at 340 nm due to the formation of NADH (ε340 is 6220 M^-1 cm^-1). The reaction mixture contained 0.1 M Tris pH 8.0, 0.1 M KCl, 3 mM EDTA, 2 mM DTT, […] and enzyme (IMPDH human type II) at a concentration of 15 to 50 nM. This solution is incubated at 37° C. for 10 minutes. The reaction is started by adding NAD to a final concentration of 0.1 M and the initial rate is measured by following the linear increase in absorbance at 340 nm for 10 minutes. For reading in a standard spectrophotometer (path length 1 cm) the final volume in the cuvette is 1.0 ml. The assay has also been adapted to a 96 well microtiter plate format; in this case the concentrations of all the reagents remain the same and the final volume is decreased to 200 μl. For the analysis of inhibitors, the compound in question is dissolved in DMSO to a final concentration of 20 mM and added to the initial assay mixture for preincubation with the enzyme at a final volume of 2-5% (v/v). The reaction is started by the addition of NAD, and the initial rates measured as above. […] The designation “ND” is used where a given compound was not tested.

Compound COC(=O)NCc1cccc(NC(=O)Nc2ccc(-c3cnco3)c(OC)c2)c1 [Compound 118] has a pKi of 5.00 to 6.00.

same assay, conditions: IMPDH human type II, 15 to 50 nM enzyme, 37° C., tight-binding fit (Henderson); read-out: Ki

COc1ccc(OC)c(NC(=O)Nc2ccc(-c3cnco3)cc2)c1 [Compound 14] and O=C(Nc1ccc(-c2cnco2)cc1)Nc1cccc(F)c1 [Compound 20] fall in the same range of pKi: 5.00 to 6.00 for the first, 5.00 to 6.00 for the second.

O=C(Nc1ccc(-c2cnco2)cc1)Nc1cccc(-c2ccoc2)c1 [Compound 53] and O=C(Nc1ccc(-c2cnco2)cc1)Nc1cccc(-c2cnco2)c1 [Compound 67] fall in the same range of pKi: 5.00 to 6.00 for the first, 5.00 to 6.00 for the second.

COc1cc(NC(=O)Nc2cccc(N(C)C(=O)C(F)(F)F)c2)ccc1-c1cnco1 [Compound 97] and COCCOC(=O)NCc1cccc(NC(=O)Nc2ccc(-c3cnco3)c(OC)c2)c1 [Compound 130] fall in the same range of pKi: 7.30 to 11.00 for the first, 7.30 to 11.00 for the second.

COc1cc(NC(=O)Nc2cccc(CNC(=O)OC3CCCSC3)c2)ccc1-c1cnco1 (stereo not shown) [Compound 161] and COc1cc(NC(=O)Nc2cccc(CNC(=O)OC3CCSC3)c2)ccc1-c1cnco1 (stereo not shown) [Compound 160] fall in the same range of pKi: 7.30 to 11.00 for the first, 7.30 to 11.00 for the second.

COc1ccc(NC(=O)Nc2cccc(C)c2)cc1CO [Compound 90] and Cc1cccc(NC(=O)Nc2ccc(C#N)c(Cl)c2)c1 [Compound 70] fall in the same range of pKi: 5.00 to 6.00 for the first, 5.00 to 6.00 for the second.

O=C(NCc1ccccc1)Nc1ccc(-c2cnco2)cc1 [Compound 1] and O=C(Nc1ccc(-c2cnco2)cc1)Nc1ccccc1C(F)(F)F [Compound 19] fall in the same range of pKi: 5.00 to 6.00 for the first, 5.00 to 6.00 for the second.

O=C(Nc1cccc([N+](=O)[O-])c1)Nc1ccc(-c2cnco2)c(Cl)c1 [Compound 78] and Nc1cccc(NC(=O)Nc2ccc(-c3cnco3)c(Cl)c2)c1 [Compound 79] fall in the same range of pKi: 6.00 to 7.29 for the first, 6.00 to 7.29 for the second.

First: Cc1cccc(NC(=O)Nc2ccc(-c3ocnc3C)c(Cl)c2)c1 [Compound 76]
Second: Cc1cccc(NC(=O)Nc2ccc(-c3cnco3)c(C)c2)c1 [Compound 75]
The pKi of the first is lower: 5.00 to 6.00 for the first, 6.00 to 7.29 for the second. The second binds more tightly here.

First: Cc1cnc(NC(=O)Nc2ccc(-c3cnco3)cc2)s1 [Compound 31]
Second: Cc1ncc(-c2cccc(NC(=O)Nc3ccc(-c4cnco4)cc3)c2)cn1 [Compound 66]
The pKi of the first is lower: < 5.00 for the first, 5.00 to 6.00 for the second.

Cc1cc(NC(=O)Nc2ccc(-c3cnco3)c(Cl)c2)ccn1 [Compound 62] and Cc1ccc(NC(=O)Nc2ccc(-c3cnco3)c(Cl)c2)s1 [Compound 86] fall in the same range of pKi: 5.00 to 6.00 for the first, 5.00 to 6.00 for the second.

COc1cc(NC(=O)Nc2cccc(CNC(=O)OCC3CCOC(C)(C)O3)c2)ccc1-c1cnco1 (stereo not shown) [Compound 146] and COc1cc(NC(=O)Nc2cccc(CNC(=O)OCC3CCCCN3)c2)ccc1-c1cnco1 (stereo not shown) [Compound 159] fall in the same range of pKi: 7.30 to 11.00 for the first, 7.30 to 11.00 for the second.

COc1cc(NC(=O)Nc2cccc(CNC(=O)OC3CCCCC3)c2)ccc1-c1cnco1 [Compound 132] and COc1cc(NC(=O)Nc2cccc(CNC(=O)OC3CCOC3)c2)ccc1-c1cnco1 (stereo not shown) [Compound 136] fall in the same range of pKi: 7.30 to 11.00 for the first, 7.30 to 11.00 for the second.

Compared with COC(=O)c1cc(NC(=O)Nc2cccc([N+](=O)[O-])c2)ccc1-c1cnco1 [Compound 89], COC(=O)Cc1cccc(NC(=O)Nc2ccc(-c3cnco3)c(Cl)c2)c1 [Compound 57] is higher in pKi: 5.00 to 6.00 for the first, 6.00 to 7.29 for the second.

Compared with CSc1cc(NC(=O)Nc2cccc(CNC(=O)O[C@H]3CCOC3)c2)ccc1C#N [Compound 168], COc1cc(NC(=O)Nc2cccc(CNC(=O)OCC3CCNCC3)c2)ccc1-c1cnco1 [Compound 155] is higher in pKi: 6.00 to 7.29 for the first, 7.30 to 11.00 for the second. The second binds more tightly here.

Cc1cccc(NC(=O)Nc2cccc([N+](=O)[O-])c2)c1 [Compound 32] and Cc1cccc(NC(=O)Nc2ccc(C#N)cc2)c1 [Compound 33] cannot be ordered by pKi: < 5.00 for the first, < 5.00 for the second.

Cc1cccc(NC(=O)Nc2ccc(-c3cnco3)c(N)c2)c1 [Compound 109] and Cc1cccc(NC(=O)Nc2ccc(-c3cnco3)c(F)c2)c1 [Compound 46] fall in the same range of pKi: 6.00 to 7.29 for the first, 6.00 to 7.29 for the second.

COc1cc(NC(=O)Nc2cccc(CNC(=O)OCc3ccco3)c2)ccc1-c1cnco1 [Compound 128] and COc1cc(NC(=O)Nc2cccc(CNC(=O)OCc3cccs3)c2)ccc1-c1cnco1 [Compound 129] fall in the same range of pKi: 7.30 to 11.00 for the first, 7.30 to 11.00 for the second.

First: COc1cc(NC(=O)Nc2cccc(CNC(=O)OCC3CCN(C(=O)OC(C)(C)C)CC3)c2)ccc1-c1cnco1 [Compound 148]
Second: COc1cc(NC(=O)Nc2cccc(NC(=O)C(=O)c3cc(OC)c(OC)c(OC)c3)c2)ccc1-c1cnco1 [Compound 108]
The pKi of the first is higher: 7.30 to 11.00 for the first, 6.00 to 7.29 for the second.

First: O=C(Nc1ccc(-c2cnco2)cc1)Nc1cccc(C(F)(F)F)c1 [Compound 18]
Second: Nc1cccc(NC(=O)Nc2ccc(-c3cnco3)c(Br)c2)c1 [Compound 65]
The pKi of the first is lower: 5.00 to 6.00 for the first, 6.00 to 7.29 for the second.

O=C(O)Cc1cccc(NC(=O)Nc2ccc(-c3cnco3)c(Cl)c2)c1 [Compound 63] gave a pKi of 5.00 to 6.00.

Reference: patent US7329681B2, “Inhibitors of IMPDH enzyme” (Vertex Pharmaceuticals Incorporated, priority 1996, dated 2008)
